Results published in ChEMBL document CHEMBL3507680, “University of Dundee, Gates Library screen for HepG2 cell viability”.

Test: Human HepG2 cell viability assay in 384 well format
Type: toxicity, cell-based
Design: dose 125 nL, time 70.5 hour; concentration not given beside the values
Details: HepG2 cells, read-out: Inhibition

| SMILES | cytotoxicity at 70.5 h [%] |
| --- | --- |
| CCc1nc(CN2CCCN(C(=O)CCSC)CC2)cs1 | -15.8 |
| CCC[C@H]1CN(Cc2cncn2C)C[C@@H]1NC(=O)C1(COC)CCC1 | -9.83 |
| O=C(Cc1csc(-c2ccccc2F)n1)NCc1ccc(C(=O)O)cc1 | -10.6 |
| O=c1[nH]nc(-c2cccs2)c2sc(N3CCOCC3)nc12 | -4.15 |
| c1csc(N2[C@H](Cn3cncn3)C[C@@H]3CNCC[C@@H]32)n1 | 10.2 |
| CC[C@H]1CN(C(=O)C(C)(C)C)CC[C@H]1CC(=O)O | 7.7 |
| NC(=O)C1(CCCc2ccccn2)CCCN(Cc2ccncc2)C1 (configuration not stated) | -2.02 |
| O=S(=O)(C1CC1)N1CC[C@H](OCC2CC2)[C@@H]1Cc1cccnc1 | -4.98 |
| COc1ncccc1C(=O)NCC(C)Oc1cccnc1 (configuration not stated) | -10.8 |
| c1cnc(N2CCN3C[C@H](Oc4cncnc4)C[C@H]3C2)nc1 | -1.15 |
| CCC(NCCn1cccn1)C(=O)Nc1cc(C)on1 (configuration not stated) | 24.9 |
| CCN(CC)S(=O)(=O)CC(=O)N1CCc2ccc(C)cc21 | -7.29 |
| CNS(=O)(=O)CCCN1CCCC1c1cc(C)on1 (configuration not stated) | 1.72 |
| CC(=O)N1CCCC(Cc2cnc(C(=O)N3CCC(C)CC3)cn2)C1 (configuration not stated) | -5.67 |
| CN1CCc2[nH]nc(C(=O)N3CCCC4(CC3)CNC(=O)O4)c2C1 (configuration not stated) | -3.37 |
| Cn1cc(CN2CCC(c3[nH]ncc3S(C)(=O)=O)C2)cn1 (configuration not stated) | -2.27 |
| Cn1cc(C2CCCN2Cc2csc(C3CCCC3)n2)cn1 (configuration not stated) | 0.499 |
| CC(C)CNC(=O)COc1cccc[n+]1[O-] | 0.267 |
| CC(=O)N1CCCC1(C)c1nc(C)no1 (configuration not stated) | 0.978 |
| c1ccc2cc(OCCN3CCn4c(nnc4C4CC4)C3)ccc2c1 | 31 |
| COCCN1CCO[C@@H]2CN(Cc3cc(OC)cc(OC)c3)C[C@@H]2C1 | 36.9 |
| COc1ccc([C@@H]2CN(C(=O)CCc3cc(Cl)no3)C[C@H]2N(C)C)cc1 | 4 |
| CCc1cnc(C)nc1NCCc1nc(N)cc(O)n1 | -3.5 |

| SMILES | cytotoxicity at 70.5 h [%] |
| --- | --- |
| CS(=O)(=O)N1CCCC(C(=O)Nc2cnn(Cc3ccc(Cl)cc3)c2)C1 (configuration not stated) | 0.541 |
| CCNc1nc2c(s1)C(=O)CN(C(=O)NCc1ccccc1)C2 | -0.493 |
| Cc1ccc(NC(=O)N(C)CC(O)COCCOC(C)C)c(Br)c1 (configuration not stated) | -4.27 |
| COc1ccc(CNC(=O)NC2CCN(C)CC2)c(C(F)(F)F)c1 | 2.4 |
| CCc1n[nH]c(C2CN(CCc3ccncc3)CCO2)n1 (configuration not stated) | -7.11 |
| CC(C)Nc1cccc(CNC(=O)N2CCC(N3CC=CC3)C2)c1 (configuration not stated) | 30.6 |
| COC(=O)c1ccccc1C(=O)N(CCN(C)C)Cc1sccc1C | -7.74 |
| COc1cccc(S(=O)(=O)NC(=O)COC2CCCC2)c1 | -3.13 |
| COCCNC(=O)[C@H]1C[C@@H]2CCN(Cc3ccncc3)C[C@H]2O1 | -9.09 |
| NC(=O)NCCC(=O)N1CCC(c2cc(Cc3ccccc3)n[nH]2)CC1 | -6.87 |
| COc1ccc(N2CCN(Cc3nc(CSC)no3)CC2=O)cc1 | 4.47 |
| Cc1ccn(-c2ccnc(N3CCN(c4ncccn4)CC3)n2)n1 | -9.69 |
| Cc1cc(-c2cccnc2)nc(C2CCCN2S(C)(=O)=O)n1 (configuration not stated) | -3.42 |
| Cc1cccc(CN2CCC3(CCCN(Cc4cnn(C)c4)C3)C2)n1 (configuration not stated) | -14 |
| CSc1nccn1-c1cccc(C(=O)NCc2nnc(C)n2C)c1 | 6.07 |
| CCn1nc(C)cc1C(=O)Nc1cc(F)ccc1OCC1CCCO1 (configuration not stated) | -16.3 |
| CCCc1ccc2oc(C(=O)N3CCN(CCOC)CC3)c(C)c2c1 | -2.68 |
| Cc1ccc2c(c1)c(C)cc(=O)n2CCC#N | 0.982 |
| Cc1nc(C(=O)NCc2ccc(N3CCNC(=O)C3)c(F)c2)cs1 | -5.54 |
| Cc1cnc(N2CCC3(CCCN(c4ccc(C)nn4)C3)C2)nc1 (configuration not stated) | 14.4 |
| Cn1ccnc1CNC(=O)c1cnc(C2CCNCC2)cn1 | 28.1 |
| O=C(NC[C@]12COC[C@H]1CN(Cc1cccc(F)c1)C2)c1ccco1 | -12.4 |
| Cc1oncc1C(=O)N1CC[C@H]2[C@H](C[C@@H](CN(C)C)N2CC2CC2)C1 | -0.907 |

| SMILES | cytotoxicity at 70.5 h [%] |
| --- | --- |
| CN(C)c1cc(CNC(=O)Nc2ccc(S(C)(=O)=O)nc2)ccn1 | -15.4 |
| Cc1nnc(N2C[C@@H]3CCCO[C@@H]3[C@H](N(C)C)C2)s1 | 26.3 |
| CN1C(=O)CC(c2cnn(C)c2)C12CCN(C(=O)C1CC=CC1)CC2 (configuration not stated) | -6.39 |
| O=C(COc1ccc(C(F)(F)F)cc1)NS(=O)(=O)c1cccnc1 | -3.77 |
| Cc1nc(N2CCCC2C(=O)NCc2ccsc2)nc2ccccc12 (configuration not stated) | -6.09 |
| CN1CC2(CCN(Cc3cccc(C#N)c3)CC2)CC1=O | 20.6 |
| COc1ccc(CSc2nnc(N)n2C2CC2)cc1F | 24.8 |
| CC(C)N(C)CC(=O)NCC(O)c1cc2ccccc2s1 (configuration not stated) | -7.72 |
| CN(C)C(=O)COCc1ncn2c1CN(c1ncc(F)cn1)CCC2 | 9.71 |
| CC(C)(C)OC(=O)NCCc1csc(N2CCCC2)n1 | -3.27 |
| COc1ccnc(CN2CCC=C(C(C)NC(C)=O)C2)c1OC (configuration not stated) | -3.19 |
| CCOc1ccc(C2SCC(=O)Nc3c2c(=O)[nH]n3C(C)C)cc1 (configuration not stated) | -11.8 |
| C=C/C=c1\c(=C/C)oc2c(NCc3ccccc3)ncnc12 | 10.6 |
| CC1(C)CC(C(=O)N2CCC3(CCC(=O)N(C4CC4)C3)CC2)CCO1 (configuration not stated) | -4.55 |
| CN(C)Cc1nc(-n2cnc(C(=O)NC3CCCC3)c2)n2ccccc12 | -3.17 |
| COc1cc(C)cc(C(C(=O)O)N(C)Cc2ccon2)c1OC (configuration not stated) | -0.471 |
| CC(C)Oc1ccccc1C1CC(=O)Nc2nc(N3CCOCC3)sc21 (configuration not stated) | -13.2 |
| CN(C)c1ncccc1CNc1snc(Cl)c1C#N | -77.9 |
| CC(C)NC(=O)CNC(=O)c1csc(Cc2ccccc2F)n1 | -4.54 |
| Cc1ccc(S(=O)(=O)NC(=O)CCc2cscn2)cc1Cl | 25.6 |
| CN(C)CCCNCCC(c1ccccc1)C1CCOC(C)(C)C1 (configuration not stated) | -3.41 |
| O=C(Nc1nncs1)NC1CCOc2ccccc21 (configuration not stated) | 3.46 |
| Cn1cc(CN2CC[C@H](O)[C@@H](n3ccc(=O)[nH]c3=O)CC2)cn1 | 12.4 |

| SMILES | cytotoxicity at 70.5 h [%] |
| --- | --- |
| O=C(NCC(O)COc1ccccc1)C1(c2ccc(F)cc2)CC1 (configuration not stated) | -10.3 |
| Cc1noc(C2CCN(C(=O)CCNc3ncccn3)CC2)n1 | -1.06 |
| Cc1cnn(CC2CCCN2C(=O)c2ccc3[nH]nnc3c2)c1 (configuration not stated) | 17.5 |
| Cc1cnn(C2(C(=O)O)CCN(c3ccnc4cc(Cl)ccc34)CC2)c1 | -5.05 |
| O[C@@H]1CN(c2noc(C3CC3)n2)CC[C@H]1c1ccc2ccccc2c1 | 17.6 |
| CN1CCCC1CNC(=O)CCCOCc1ccccc1 (configuration not stated) | -3.14 |
| CC(C)(C)C(=O)N1CCCC1c1nc(O)cc(-c2ccccn2)n1 (configuration not stated) | -8.73 |
| Cc1cnn(CC2CCN(CC(O)c3ccccc3F)CC2)c1 (configuration not stated) | 8.3 |
| CCOC(=O)NCCC(O)c1ccoc1 (configuration not stated) | -11.9 |
| CSc1ccc(OCCN2CCC(n3cncn3)CC2)cc1 | -13.7 |
| CC(C)NC(=O)Nc1ncc(-c2cccnc2)s1 | -4.04 |
| COc1ccccc1C1(C(=O)NCCN2CCCCC2)CCOCC1 | 15.9 |
| Cc1nc(C2CCCN2CC(=O)NCCOc2ccc(F)cc2)no1 (configuration not stated) | 47.6 |
| CC(NC(=O)C1CC1)C(=O)N(C)Cc1ccsc1 (configuration not stated) | -5.83 |
| Cc1cccc(NC2CCN(C(=O)Nc3cn[nH]c3)CC2)n1 | -6.92 |
| COc1ccccc1OC1CN(C(=O)CN(C)Cc2ccncc2)C1 | -14.2 |
| Cc1ccc2oc(=O)n(CCC(=O)N3CCCC4(CNC(=O)O4)C3)c2c1 (configuration not stated) | -1.82 |
| CS(=O)(=O)NCc1noc2c1CN(C(=O)c1ccsc1)CC2 | -7.43 |
| CCS(=O)(=O)N1CC[C@H]2[C@H]1CC(=O)N2Cc1csc(C)n1 | -1.34 |
| N#Cc1ccc(OCCOc2ccccc2C(=O)N2CCOCC2)cc1 | -9.24 |
| Cc1ccc(-c2ccnc(N3CCC4(CC3)CNC(=O)C4)n2)c(C)n1 | 15.1 |
| COCCNC(=O)Cn1cc(OCc2ccccc2)c(=O)cc1CO | -15.3 |
| Cc1ccnc(C2CN(Cc3ccc(-c4ccccc4C(=O)O)o3)C2)n1 | -0.616 |

| SMILES | cytotoxicity at 70.5 h [%] |
| --- | --- |
| Cc1nc(CN2CCCC(N(C)Cc3nc(CC(C)C)no3)C2)no1 (configuration not stated) | -9.14 |
| COC1CCC(N(C)c2ccnc(N(C)C)n2)CC1 (configuration not stated) | -7.23 |
| c1cc(CNCCC2CCCO2)ccn1 (configuration not stated) | 5.59 |
| CCN1CC2(CCN(C(=O)C(C)Oc3ccc(F)cc3Cl)CC2)CC1=O (configuration not stated) | 25 |
| CSc1ncc(Cl)c(C(=O)NC(Cc2ccccc2)C(=O)O)n1 (configuration not stated) | 15 |
| Cc1nc(C)n(C2CCCN(C(=O)c3ccc4[nH]nnc4c3)C2)n1 (configuration not stated) | 0.449 |
| Cc1oncc1C(=O)NCc1cc(=O)n2c(n1)CN(CC(C)C)CCC2 | 22.7 |
| COc1ccc(C(=O)N2C[C@@H](C(=O)O)[C@H](c3ccccc3C)C2)c(O)c1 | -6.81 |
| CC(C)NC(=O)C1CCc2nnc(CNC(=O)c3ccc(Cl)cc3Cl)n21 (configuration not stated) | 1.45 |
| Fc1cccc(CN2CCC[C@@H](Cn3nnc(-c4ccccn4)n3)C2)c1 | -5.77 |
| CN(Cc1cccc(-n2cccn2)c1)Cc1cccs1 | -11 |
| O=C(C[C@H]1[C@H]2CN(C(=O)Cc3ccccn3)C[C@@H]12)Nc1cccnc1 | -1.03 |
| O=C(c1cscn1)N1C[C@H]2CN(Cc3nccs3)C[C@H]2C1 | -1.36 |
| CC(C)C(=O)N1CCN(Cc2csc(-c3ccccn3)n2)CC1 | -7.7 |
| CN1CCCCC1c1ncc2c(n1)CCN(CCCc1ccccc1)C2 (configuration not stated) | 16.2 |
| Cc1c[nH]nc1C1CCCN1Cc1ccncc1 (configuration not stated) | -4.73 |
| Cc1cc(C)nc(N2CC=C[C@@H]2C(=O)NCc2ccc3c(c2)OCO3)n1 | -9.16 |
| CC(C)CC1SCC(=O)Nc2c1cnn2-c1ccc(F)cc1 (configuration not stated) | -6.67 |
| Cc1ncc2c(n1)CCN(Cc1ncc(C(C)(C)C)o1)C2 | -11.4 |
| COc1ccc(OC)c(C(O)CN2CCN(c3cccc(C)c3)CC2)c1 (configuration not stated) | 7.32 |
